“Also recorded” adds a separate entry of the source.
Assays:
[1] = system: PDK1 phosphorylation in SU-DHL-8 cells; test: PDK1 phosphorylation inhibition by flow cytometry (pPDK1-PE) in SU-DHL-8 cells; type: cell-based, human; conditions: SU-DHL-8, 24 hours, vs control group
Description: After stabilizing the cells, the compound of the present invention was added, and the cells were cultured for 24 hours.
After drug treatment, the cells were harvested, and the Fc receptor blocking process was performed. The cells were then fixed and permeabilized using the Intracellular Staining Kit (Cat. No. BD554715) from BD Biosciences. Subsequently, the intracellular pPDK1 was stained using the pPDK1-PE fluorescently labeled antibody (BD Biosciences).
Referring to the figure, the vertical axis represents the phosphorylation level of PDK1 (phospho-PDK1 expression level), and the horizontal axis denotes the concentration-dependent treatment conditions of each compound.

[2] = system: pulmonary fibrosis-induced mice; test: Bleomycin-induced pulmonary fibrosis animal model; type: in vivo, Balb/c mice; conditions: bleomycin mice lung, vs BLM-treated group
Excerpt: To evaluate the therapeutic efficacy of the compound according to the present invention against pulmonary fibrosis, an animal model of pulmonary fibrosis induced by bleomycin intratracheal administration was established.
For this purpose, 8-week-old male Balb/c mice were subjected to general anesthesia using an inhalation anesthetic (2-3% isoflurane in oxygen), followed by disinfection of the neck region, skin incision, and exposure of the trachea.
Bleomycin (Sigma-Aldrich, USA) was directly administered into the trachea at a concentration of 5 mg/kg in a solution of 100 μL.
Two days prior to Bleomycin administration, the compound of the present invention or the comparative drug was administered intraperitoneally at the specified concentration and dose, and the administration was continued once daily for a total of 14 days.
The experimental groups included Normal, Bleomycin alone (BLM), and BLM plus the compound of the present invention (BLM+GO88, 0.2 mg/kg).
Ten days later, the mice were euthanized humanely using carbon dioxide gas, the trachea was incised, and PBS was injected into the trachea to remove blood from the lungs.
The lung tissue washed with PBS was excised, fixed in 4% paraformaldehyde solution for 24 hours, and then paraffin blocks and tissue sections were prepared. The prepared sections were subjected to pathological analysis using H&E, Masson's trichrome, and Sirius red staining.
Additionally, immunohistochemical (IHC) staining was performed for α-SMA (α-smooth muscle actin), an indicator of lung fibroblast activation.

[3] = system: MRL/lpr mice with hair loss in the facial region; test: Hair loss treatment and hair follicle Ki-67 IHC in MRL/lpr mice; type: in vivo; conditions: 41-week-old female MRL/lpr; GO15F (30 mg/kg), GO48 (1 mg/kg), GO88 (0.5 mg/kg) intraperitoneal once daily
Description: Additionally, in 41-week-old female MRL/Ipr mice, the compounds GO15F (30 mg/kg), GO48 (1 mg/kg), and GO88 (0.5 mg/kg) were administered intraperitoneally once daily.
To confirm the proliferative activity of hair follicle cells in the skin tissue of these mice, the mice were sacrificed 14 days after administration of the compounds of the present invention, and Ki-67 immunohistochemistry (IHC) was performed.
For this purpose, the excised skin tissue was fixed in formalin, embedded in paraffin blocks, and stained with a Ki-67-specific antibody on tissue sections prepared as slides.

[4] = system: psoriasis-induced mice; test: In vivo psoriasis model (Aldara cream, Imiquimod); set-up: species or system BALB/c mice
Description: To verify the therapeutic effect of the compound according to the present invention on psoriasis, a psoriasis animal model was established as follows, and the compound according to the present invention was administered to evaluate the alleviation of skin lesions and changes in immune cell patterns.
For the establishment of the psoriasis animal model, BALB/c mice (7 weeks old, female, 20 g) were purchased from HanabioTech Co., Ltd. and acclimatized to the rearing environment for one week.
Subsequently, the hair on the mouse back was shaved using a hair removal device for the first time, and then completely shaved using a depilatory cream (Nicrin Cream (80% thioglycolic acid, Il Dong Pharmaceutical)) for the second time. The mice were then kept for 24 hours to confirm the absence of skin damage.
To verify the psoriasis prevention and therapeutic effects of the compounds according to the present invention, the following experimental groups were established:
[Normal control group (Normal, Not Treatment), psoriasis-induced control group (Psoriasis, Not Treatment), psoriasis-induced vehicle control group (Psoriasis, Vehicle), experimental group (GO85, GO86, GO88, GO89, PBK-2024-010, PBK-2024-026, PBK-2025-002, PBK-2025-004, PBK-2025-016, PBK-2025-017, PBK-2025-023)]. […]
Body weights of mice in each group were measured on days 1, 4, and 8 after the start of injection and psoriasis induction. […]
To evaluate the therapeutic effect in a psoriasis-induced mouse model, the PASI (Psoriasis Area and Severity Index) score was measured.
The PASI score is based on three criteria: erythema, scaling, and skin thickness, each scored from 0 (none) to 4 (severe). […]
Observations were conducted daily at the same time, and the same observer visually assessed each criterion and recorded the scores, with the results presented in FIG. 13. […]
All samples were measured in duplicate, and the absorbance was measured at 450 nm using a microplate reader.

| Compound | phospho-PDK1 expression level [1] | collagen deposition (Masson's trichrome and Sirius red staining) [2] | expression of α-SMA (IHC) [2] | hair growth on the facial region [3] | phospho-PDK1 expression level ([1]; listed as GO86) | efficacy in improving dermatological symptoms [4] | phospho-PDK1 expression level ([1]; listed as GO88) |
| --- | --- | --- | --- | --- | --- | --- | --- |
| Nc1ncccc1C(=O)NCCCCCCCCCCCCF [Compound 57, 2-Amino-N-(12-fluoro-dodecyl)-nicotinamide] | inhibitory effect on PDK1 phosphorylation | significantly reduced | significantly suppressed | hair growth was confirmed | – | – | – |
| 12-[4-(2,2-dimethylmorpholin-4-yl)]dodecyl-N-(6-aminopurine-2-yl) carboxamide [Compound 11] | – | – | – | – | stronger PDK1 inhibition; also recorded: high inhibitory effects even at low concentrations | excellent efficacy in improving dermatological symptoms | – |
| Nc1ncccc1C(=O)NCCCCCCCCCCCCN1CCNCC1 [Compound 14, 2-Amino-N-(12-(piperazin-1-yl)dodecyl)nicotinamide] | – | significantly reduced | significantly suppressed | hair growth was confirmed | – | excellent efficacy in improving dermatological symptoms | stronger PDK1 inhibition; also recorded: high inhibitory effects even at low concentrations |

Reference: patent publication US20260183302A1, “PDK1 REGULATORY COMPOUND AND COMPOSITION CONTAINING THE SAME” (PROVIBIO CO., LTD., priority 2024, published 2026)
